Laboratory results published in the supplement of paper PMC10307832.

Experiments:
Experiment in all cases: relative viability (nuclei count vs DMSO), 5 days (fraction); higher = more cells survive
[1] = compound: O[C@@H](COc1cccc2ncccc12)CN1CCN([C@@H]2c3ccccc3[C@@H]3[C@H](c4ccccc42)C3(F)F)CC1 [Zosuquidar] + CS(=O)(=O)N1CCN(Cc2cc3nc(-c4cccc5[nH]ncc45)nc(N4CCOCC4)c3s2)CC1 [Pictilisib] (partner 1 µM)
Procedure, shortened: (§1)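 Lung cancer cell lines, seeded in 1536-well plates, were treated the following day by pin tool with a single drug or with five library-drug doses (not always all listed) in √10 steps on top of a fixed anchor-drug dose. Cells were fixed and nuclei stained in one step after 5 days, and nuclei were counted. Relative viability is the nuclei count for treated wells divided by that for vehicle wells, reported as medians of duplicate plates.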

[2] = compound: C1=CC(=CC=C1NC(=S)NNC2=C(C=C(C=C2[N+](=O)[O-])C(F)(F)F)[N+](=O)[O-])F [Kobe2602] + CS(=O)(=O)N1CCN(Cc2cc3nc(-c4cccc5[nH]ncc45)nc(N4CCOCC4)c3s2)CC1 [Pictilisib] (partner 1 µM)
Procedure, shortened: as §1

[3] = compound: C1=CC(=CC=C1NC(=S)NNC2=C(C=C(C=C2[N+](=O)[O-])C(F)(F)F)[N+](=O)[O-])F [Kobe2602] + CS(=O)(=O)CCNCc1ccc(-c2ccc3ncnc(Nc4ccc(OCc5cccc(F)c5)c(Cl)c4)c3c2)o1 [Lapatinib] (partner 2 µM)
Procedure, shortened: as §1

[4] = compound: O[C@@H](COc1cccc2ncccc12)CN1CCN([C@@H]2c3ccccc3[C@@H]3[C@H](c4ccccc42)C3(F)F)CC1 [Zosuquidar] + Nc1ncn([C@H]2C[C@H](O)[C@@H](CO)O2)c(=O)n1 [Decitabine] (partner 2 µM)
Procedure, shortened: as §1

| Cell Line | relative viability ([1]; first compound 0.01 µM) | relative viability ([1]; first compound 0.03162 µM) | relative viability ([1]; first compound 0.1 µM) | relative viability ([1]; first compound 0.3162 µM) | relative viability ([1]; first compound 1 µM) | relative viability ([2]; first compound 0.2 µM) | relative viability ([2]; first compound 0.6325 µM) | relative viability ([2]; first compound 2 µM) | relative viability ([2]; first compound 6.325 µM) | relative viability ([2]; first compound 20 µM) | relative viability ([3]; first compound 0.2 µM) | relative viability ([3]; first compound 0.6325 µM) | relative viability ([3]; first compound 2 µM) | relative viability ([3]; first compound 6.325 µM) | relative viability ([3]; first compound 20 µM) | relative viability ([4]; first compound 0.01 µM) | relative viability ([4]; first compound 0.03162 µM) | relative viability ([4]; first compound 0.1 µM) | relative viability ([4]; first compound 0.3162 µM) | relative viability ([4]; first compound 1 µM) |
| --- | --- | --- | --- | --- | --- | --- | --- | --- | --- | --- | --- | --- | --- | --- | --- | --- | --- | --- | --- | --- |
| NCI-H2347 | 0.627 | 0.495 | 0.467 | 0.735 | 0.647 | 0.745 | 0.843 | 0.716 | 0.558 | 0.611 | 0.939 | 0.963 | 0.913 | 0.988 | 0.909 | 0.689 | 0.648 | 0.657 | 0.694 | 0.643 |
| NCI-H2405 | 0.512 | 0.351 | 0.467 | 0.529 | 0.363 | 0.459 | 0.41 | 0.413 | 0.425 | 0.536 | 1.05 | 1.17 | 1.01 | 1.2 | 1.33 | 0.737 | 0.777 | 0.734 | 0.767 | 0.758 |
| NCI-H3122 | 0.616 | 0.662 | 0.524 | 0.641 | 0.608 | 0.575 | 0.599 | 0.522 | 0.583 | 0.702 | 1.04 | 0.981 | 1 | 1.03 | 1.06 | 0.394 | 0.449 | 0.417 | 0.508 | 0.457 |
| PC-3 [JPC-3] | 0.768 | 0.539 | 0.664 | 0.677 | 0.738 | 0.873 | 0.74 | 0.795 | 0.781 | 0.671 | 0.488 | 0.457 | 0.434 | 0.477 | 0.495 | 0.886 | 0.925 | 0.791 | 0.859 | 0.79 |
| PC-14 | 0.573 | 0.831 | 0.801 | 0.696 | 0.816 | 0.63 | 0.674 | 0.592 | 0.637 | 0.745 | 0.31 | 0.426 | 0.294 | 0.333 | 0.306 | 0.224 | 0.176 | 0.212 | 0.195 | 0.205 |
| RERF-LC-KJ | 0.467 | 0.586 | 0.536 | 0.679 | 0.57 | 0.589 | 0.643 | 0.512 | 0.506 | 0.493 | 0.851 | 0.842 | 0.809 | 0.697 | 0.831 | 0.717 | 0.727 | 0.691 | 0.776 | 0.691 |
| SK-LU-1 | 0.552 | 0.642 | 0.567 | 0.689 | 0.543 | 0.613 | 0.727 | 0.624 | 0.578 | 0.513 | 0.859 | 0.88 | 0.92 | 0.859 | 0.817 | 0.652 | 0.66 | 0.684 | 0.679 | 0.638 |
| SK-MES-1 | 0.324 | 0.324 | 0.33 | 0.394 | 0.392 | 0.348 | 0.362 | 0.346 | 0.345 | 0.362 | 0.465 | 0.488 | 0.427 | 0.436 | 0.464 | 0.343 | 0.36 | 0.347 | 0.422 | 0.402 |
| SW 1573 | 0.425 | 0.465 | 0.446 | 0.626 | 0.597 | 0.491 | 0.457 | 0.365 | 0.556 | 0.486 | 1.34 | 1.25 | 1.05 | 1.1 | 1.14 | 0.372 | 0.508 | 0.568 | 0.598 | 0.591 |
